Earlier results as cited in patent US20150065426A1, “Testosterone Booster Transdermal Compositions” (Professional Compounding Centers Of America, priority 2013, published 2015).

Tests used:
[1] = men with elevated estradiol / hormone disorders
[2] = after the use of anastrozole for about 7 days

SMILES: CC(C)(C#N)c1cc(Cn2cncn2)cc(C(C)(C)C#N)c1 [anastrozole, Anastrozole]
- estradiol levels [1]: significant decrease
- increase of natural testosterone levels [2]: ≤ 60%
